Tests used:
Test in all cases: relative viability (nuclei count vs DMSO), 5 days (fraction); higher = more cells survive
[1] = compound: C1=CC(=CC=C1C2=CC(=C(S2)NC(=O)N)C(=O)N)F [TPCA-1] + Cc1nc(NC(=O)N2CCC[C@H]2C(N)=O)sc1-c1ccnc(C(C)(C)C(F)(F)F)c1 [Alpelisib] (partner 2 µM)
Outline: (§1)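 Medians of duplicate plates are given as relative viability. That measure is the nuclei count in treated wells divided by the count in vehicle wells. Counts were taken on 4× images of lung cancer cell lines in 1536-well plates, 5 days after pin-tool dosing the day after seeding with one drug alone or a fixed anchor-drug dose plus five library-drug doses (not always all listed) in √10 steps.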

[2] = compound: C1=CC(=CC=C1C2=CC(=C(S2)NC(=O)N)C(=O)N)F [TPCA-1] + O=C(c1cc(Cc2n[nH]c(=O)c3ccccc23)ccc1F)N1CCN(C(=O)C2CC2)CC1 [Olaparib] (partner 8 µM)
Outline: as §1

[3] = compound: C1=CC(=CC=C1C2=CC(=C(S2)NC(=O)N)C(=O)N)F [TPCA-1] + C[C@@H](Oc1cc(-c2cnn(C3CCNCC3)c2)cnc1N)c1c(Cl)ccc(F)c1Cl [Crizotinib] (partner 1 µM)
Outline: as §1

[4] = compound: C1/C(=C\C2=CC=CS2)/C(=O)/C(=C/C3=CC=CS3)/C1 + COc1cc2c(Oc3ccc(NC(=O)C4(C(=O)Nc5ccc(F)cc5)CC4)cc3F)ccnc2cc1OCCCN1CCOCC1 [Foretinib] (partner 0.25 µM)
Outline: as §1

UMC-11
relative viability ([1]; first compound 0.04 µM): 0.988 | relative viability ([1]; first compound 0.1265 µM): 0.946 | relative viability ([1]; first compound 0.4 µM): 1.05 | relative viability ([1]; first compound 1.265 µM): 0.96 | relative viability ([1]; first compound 4 µM): 0.731 | relative viability ([2]; first compound 0.04 µM): 0.365 | relative viability ([2]; first compound 0.1265 µM): 0.455 | relative viability ([2]; first compound 0.4 µM): 0.405 | relative viability ([2]; first compound 1.265 µM): 0.381 | relative viability ([2]; first compound 4 µM): 0.42 | relative viability ([3]; first compound 0.04 µM): 0.579 | relative viability ([3]; first compound 0.1265 µM): 0.586 | relative viability ([3]; first compound 0.4 µM): 0.578 | relative viability ([3]; first compound 1.265 µM): 0.573 | relative viability ([3]; first compound 4 µM): 0.274 | relative viability ([4]; first compound 0.2 µM): 0.993 | relative viability ([4]; first compound 0.6325 µM): 1.12 | relative viability ([4]; first compound 20 µM): 1.03
